Results published in PMC4057667, “Study on Biopharmaceutics Classification and Oral Bioavailability of a Novel Multikinase Inhibitor NCE for Cancer Therapy” (International Journal of Molecular Sciences, 2014).
Values joined by “and” are separate entries in the source; they are usually repeats but may differ in a detail not shown here. Equal entries are not always repeated.

How the values were obtained:
[1] = Equilibrium solubility in phosphate buffers; assay type: physicochemical; settings: aqueous buffer, thermodynamic from solid, n = 3, mean
Experimental: Different phosphate buffers with a pH range of 1.0–7.4 were prepared as follows. Momobasic potassium phosphate (KH2PO4, 0.2 M) was prepared by dissolving 27.22 g of KH2PO4 in water and diluting with water to 1000 mL. Sodium hydroxide (NaOH, 0.2 M) was prepared by dissolving […] of NaOH in water and diluting with water to 1000 mL. Then, we placed 50 mL of the momobasic potassium phosphate solution in a 200 mL volumetric flask, added the specified volume of the sodium hydroxide solution and added water to volume.
The equilibrium solubilities of NCE were determined in 0.1 mol/mL phosphate buffers with a pH range of 1.0–7.4. An excess amount of NCE was put into the buffer, placed in a 37 °C water bath and shaken for 3 days at a rate of 100 rpm. Samples were centrifuged at a rate of 1.3 × 10^4 rpm for 10 min and then measured by HPLC (Waters e2695 Separations Module, Milford, MA, USA). Each experiment was performed in triplicates.

[2] = 1-octanol/water partition coefficient, shake-flask method; assay type: physicochemical; settings: 37 °C
Experimental: The partition coefficient (logP value) is related closely to drug’s absorption in vivo. Furthermore, it can help to get a better understanding of drug’s physicochemical properties. The 1-octanol/water partition coefficient of NCE was measured by a shake-flask method. Both the 1-octanol and aqueous buffer solution were saturated before performing the experiments. Solutions of about 3.3 mM NCE were prepared in aqueous 0.1 M HCl (pH = 1.0) solution and PBS buffer (pH = 6.8) solutions. Then, 1 mL of 1-octanol was added to 9 mL of the aqueous NCE solution in glass flasks. The mixtures were then stirred in a mechanical shaker for 6 h (37 °C). Samples were left in water baths and kept at the appropriate temperature (37 °C) for at least 72 h. After that, the concentrations in the aqueous phase and 1-octanol phase were determined by HPLC, respectively. The partition coefficients were calculated by the following equation. All the partitioning experiments were performed in at least triplicate.
(1) P1-octanol/water=lg (C1-octanol/Cwater)
where P1-octanol/water is the partition coefficient value; C1-octanol is the drug’s concentration in 1-octanol phase; Cwater is the drug’s concentration in aqueous solution.

[3] = test system: rat duodenum, jejunum and ileum; experiment: In situ single-pass intestinal perfusion (SPIP)
Experimental: The blank perfusion buffer solution was composed of 9.80 g Hanks’ Balanced Salts, 5.96 g 4-2(Hydroxyethyl) piperazine-1-ethanesulfonic acid (HEPES), 1.16 g NaCl, 3.50 g D-glucose and 0.37 g NaHCO3. The pH was adjusted to 6.5. […] The perfusate containing 2 μg/mL of NCE with and without 0.4% SDS was applied to three intestinal segments to investigate the effect of SDS on intestinal absorption of NCE. To examine whether there was any concentration-dependent characteristics or site specific absorption of NCE, 2, 20 and 40 μg/mL of NCE containing 0.4% SDS (w/v) were also studied in three intestinal segments using the same rat perfusion model.
Male Sprague-Dawley rats (170–230 g) were obtained from the Laboratory Animal Center, Sichuan University (Chengdu, China). Prior to the experiment, animals were fasted for at least 18 h with free access to water. All animal studies were approved and supervised by the State Key Laboratory of Biotherapy Animal Care and Use Committee (Sichuan University, Chengdu, Sichuan, China). Then, single pass intestine perfusion studies were conducted according to the literature. In brief, rats were anaesthetized by pentobarbital sodium (i.p., […]) and placed on a homeothermic pad to maintain their body temperature. After making a 3–4 cm midline abdominal incision, the small intestinal was exposed. The duodenum, jejunum and ileum were isolated as follows: duodenum segment beginning from 1 cm away from pylorus, jejunum segment beginning from 20 cm away from pylorus and ileum segment beginning at the site 20 cm upwards caecum. Each intestinal segment was approximately 10 cm long. After removing the intestinal content by rinsing with warm saline, two glass cannulas were inserted to the distal and proximal end of the segment. Then, the intestinal segments of interest were connected to a perfusion pump and the outlet tubing was placed at the same height as the inlet. The intestine was handled carefully to maintain an intact blood supply.
The segments were rinsed with perfusate at the rate of 1.0 mL/min for 10 min, and then perfused at the rate of 0.2 mL/min for 30 min to maintain a steady-state. The time was set zero immediately when the perfusion started. The outlet perfused samples were collected every 15 min until 120 min. Then, the samples were centrifuged at 1.3 × 10^4 rpm for 10 min. The supernatant was analyzed by HPLC. The length of tested segments was measured and rats were euthanized after experiment.
Peff is the quantitative parameter estimating the passage rate of a solute across a membrane. It was calculated from the steady-state concentration of NCE in the perfusate. The drug concentration in the perfusate was corrected for changes in the water flux. Meanwhile, the density corrected gravimetric method was employed to calculate the net water flux across the incubated intestinal segment. A known volume of perfusate was weighed using an electronic weighing balance to determine the density of the collected samples. After correcting for water flux, the drug concentration in the effluent perfusate (Cout(cor)), was calculated as following.
(3) Cout(cor)=Cout×Qout/Qin
where Cout is the concentration of tested drug in the effluent perfusates, Qin and Qout are the inlet and outlet flow rate (mL/min), respectively, which are adjusted for liquid density (mL/min).
The calculation of permeability across rat intestinal segment was performed from the intestinal perfusate samples collected over 15–120 min (steady state) using the following equation).
(4) Peff=-Qin ln(Cout(cor)/Cin)/2πrl

[4] = set-up: method as in ref 31 = [31]; 31. Yang Y. Fan C. Zhang J. He X. Yu Y. Fang D. He Y. Song X. Intestinal absorption characteristics and pharmacokinetics of the novel targeted small-molecular NCE in rats Chin. J. New Drugs 2013 21 25; settings: rats; cited from earlier work

In the case of `CNC(=O)c1cc(Oc2ccc(NC(=O)c3cccc(C(F)(F)F)c3)cc2)ccn1.Cc1ccc(S(=O)(=O)O)cc1.O` [NCE, 2-methylcarbamoyl-4-{4-[3-(trifluoromethyl)benzamido]phenoxy} pyridinium 4-methylbenzenesulfonate monohydrate], the solubility at 3 days ([1]; phosphate buffer pH 1.0, 37 °C) is reported as 81.7 µg/mL, the solubility at 3 days ([1]; phosphate buffer pH 5.0, 37 °C) is reported as 8.5 µg/mL and the solubility at 3 days ([1]; phosphate buffer pH 6.8, 37 °C) is reported as 9.3 µg/mL. It also gave a solubility at 3 days ([1]; phosphate buffer pH 7.4, 37 °C) of 10 µg/mL, a logP at 6 h ([2]; 1-octanol / 0.1 M HCl solution (pH = 1.0)) of 3.1 ± 0.04 and a logP at 6 h ([2]; 1-octanol/PBS pH 6.8, pH 6.8, 1-octanol / PBS 6.8 solution) of 4.2 ± 0.07. For the same molecule, the Peff ([3]; Duodenum, 2 μg/mL, with 0.4% SDS, n = 3) was 0.26 ± 0.25 ^N.S. 10^−4 cm/s, the Peff ([3]; Duodenum, 2 μg/mL, without SDS, n = 3) was 0.26 ± 0.29 10^−4 cm/s and the Peff ([3]; Duodenum, perfusate 2 μg/mL, 0.4% SDS, n = 6) was 0.21 ± 0.18 10^−4 cm/s. For the same molecule, the Peff ([3]; Duodenum, perfusate 20 μg/mL, 0.4% SDS, n = 6) was 0.34 ± 0.12 10^−4 cm/s, the Peff ([3]; Duodenum, perfusate 40 μg/mL, n = 6) was 0.49 ± 0.29 ^* 10^−4 cm/s and 0.49 ± 0.29 10^−4 cm/s and the Peff ([3]; Ileum, 2 μg/mL, with 0.4% SDS, n = 3) was 0.22 ± 0.15 ^N.S. 10^−4 cm/s. The Peff ([3]; Ileum, 2 μg/mL, without SDS, n = 3) was 0.23 ± 0.18 ^N.S. 10^−4 cm/s, the Peff ([3]; Ileum, perfusate 2 μg/mL, 0.4% SDS, n = 6) was 0.23 ± 0.25 ^N.S. 10^−4 cm/s and the Peff ([3]; Ileum, perfusate 20 μg/mL, 0.4% SDS, n = 6) was 0.29 ± 0.10 ^N.S. 10^−4 cm/s. For the same molecule, the Peff ([3]; Ileum, perfusate 40 μg/mL, n = 6) was 0.52 ± 0.28 ^N.S. ^* 10^−4 cm/s and 0.52 ± 0.28 ^N.S. 10^−4 cm/s, the Peff ([3]; Jejunum, 2 μg/mL, with 0.4% SDS, n = 3) was 0.25 ± 0.22 ^N.S. 10^−4 cm/s and the Peff ([3]; Jejunum, 2 μg/mL, without SDS, n = 3) was 0.25 ± 0.24 ^N.S. 10^−4 cm/s. The Peff ([3]; Jejunum, perfusate 2 μg/mL, 0.4% SDS, n = 6) was 0.20 ± 0.30 ^N.S. 10^−4 cm/s, the Peff ([3]; Jejunum, perfusate 20 μg/mL, 0.4% SDS, n = 6) was 0.30 ± 0.15 ^N.S. 10^−4 cm/s and the Peff ([3]; Jejunum, perfusate 40 μg/mL, n = 6) was 0.56 ± 0.26 ^N.S. ^* 10^−4 cm/s and 0.56 ± 0.26 ^N.S. 10^−4 cm/s. The “transportation mechanism in intestine” value ([3]; Peff unchanged from 2–40 μg/mL) was “passive diffusion”, the permeability class ([3]; from Peff compared with theophylline, ranitidine and propranolol) was “high permeability” and the “minimum of Peff” value ([3]; three segments, three concentrations, found in jejunum) was 20 ×10⁻⁶ cm/s. For the same molecule, the absolute oral bioavailability [4] was 44.18%.
